{"source": "patent US5344841A", "about": "“Bis-(hydroxylakylamino)-anthraquinone inhibitors of protein kinase C” (Sphinx Pharmaceuticals Corporation, priority 1992, dated 1994)", "key": {"[1]": {"system": "8226/ADR adriamycin resistant line of 8226 cells", "experiment": "Human tumor growth inhibition, 3H-thymidine incorporation, 8226/ADR", "assay_type": "cell-based", "details": "8226/ADR vs 8226", "text": "(§1) MCF-7 a human breast tumor cell line, and MCF-7/ADR an adriamycin resistant line of MCF-7 cells were obtained from the National Cancer Institute, Frederick, Md. NHEK a human keratinocyte cell line was obtained from Clonetic Corp., San Diego, Calif. 8226 a human myeloma cell line, 8226/MT a Mitoxantrone resistant line of 8226 cells, and 8226 ADR an adriamycin resistant line of 8226 cells were obtained from Dr. Bill Dalton, Arizona Cancer Center, Tuscon, Ariz.\n(§2) Human tumor cells are trypsinized (0.05% trypsin, GIBCO), counted with a hemacytometer and seeded at a concentration of 10,000 cells/well in a 96 well microtiter plate. After allowing cells to attach to the surface overnight, the culture medium is aspirated and replaced with 100 μl of fresh medium. Test agents are diluted to determine dose response at 2× final concentration and added in quadruplicate at 100 μl/well to bring the total volume of each well to 200 μl. The microtiter plate is then incubated at 37° C. 5% CO2 overnight (18-24 hrs) before ^3 H-thymidine is added at a concentration of 0.5 μCi/well in 50 μl culture medium. The plate is incubated again for 4 hrs under the same conditions as above. Supernatant is then aspirated and 50 μl trypsin (0.05%, GIBCO) is added to each well. Cells are checked microscopically to determine detachment from surfaces, and plates are then harvested with a cell harvester (PHD, Cambridge Technology, Inc.) Filter papers corresponding to wells are placed in scintillation vials and counted to determine the amount of ^3 H-thymidine incorporated by the cells. Test agent response is compared to a positive control of cell wells with culture media only to determine the IC50. IC50 is the concentration of test compound required to inhibit fifty percent of the incorporation of ^3 H-thymidine into proliferating cells not exposed to test agent. Uptake of ^3 H-thymidine is a standard test for measuring the metabolism of cells. Cells which are actively proliferating take up ^3 H-thymidine, whereas cells that are not proliferating take up ^3 H-thymidine at much slower rates or not at all. Test agents that inhibit the uptake of ^3 H-thymidine thus slow the growth of cells."}, "[2]": {"system": "MCF-7/ADR adriamycin resistant line of MCF-7 cells", "experiment": "Human tumor growth inhibition, 3H-thymidine incorporation, MCF-7/ADR", "assay_type": "cell-based", "details": "NCI/ADR-RES, 3H-thymidine uptake"}, "NHEK human keratinocytes": {"system": "NHEK human keratinocytes", "experiment": "Human keratinocyte inhibition, 3H-thymidine incorporation", "assay_type": "cell-based", "method": "Human tumor cells are trypsinized (0.05% trypsin, GIBCO), counted with a hemacytometer and seeded at a concentration of 10,000 cells/well in a 96 well microtiter plate. After allowing cells to attach to the surface overnight, the culture medium is aspirated and replaced with 100 μl of fresh medium. Test agents are diluted to determine dose response at 2× final concentration and added in quadruplicate at 100 μl/well to bring the total volume of each well to 200 μl. The microtiter plate is then incubated at 37° C. 5% CO2 overnight (18-24 hrs) before ^3 H-thymidine is added at a concentration of 0.5 μCi/well in 50 μl culture medium. The plate is incubated again for 4 hrs under the same conditions as above. […] Cells are checked microscopically to determine detachment from surfaces, and plates are then harvested with a cell harvester (PHD, Cambridge Technology, Inc.) Filter papers corresponding to wells are placed in scintillation vials and counted to determine the amount of ^3 H-thymidine incorporated by the cells. […]\nProliferating keratinocytes (NHEK cells purchased from Clonetics, Inc. San Diego, Calif.) in second passage were grown in Keratinocyte Growth Medium (KGM) (Clonetics, Inc.) Cells were trypsinized with 0.025% trypsin (Clonetics), counted with a hemacytometer (Scientific Products), and seeded at a concentration of 2,500 cells/well in a 96 well microtiter plate. […]"}, "[3]": {"system": "8226 human myeloma cell line", "experiment": "Human tumor growth inhibition, 3H-thymidine incorporation, 8226", "assay_type": "cell-based", "details": "3H-thymidine uptake, read-out: IC50 8226", "text": "as §1, §2"}, "[4]": {"system": "8226/MT Mitoxantrone resistant line of 8226 cells", "experiment": "Human tumor growth inhibition, 3H-thymidine incorporation, 8226/MT"}, "[5]": {"system": "MCF-7/ADR adriamycin resistant line of MCF-7 cells", "experiment": "Human tumor growth inhibition, 3H-thymidine incorporation, MCF-7/ADR", "assay_type": "cell-based", "details": "MCF-7/ADR vs MCF-7", "text": "as §1, §2"}, "[6]": {"system": "8226/ADR adriamycin resistant line of 8226 cells", "experiment": "Human tumor growth inhibition, 3H-thymidine incorporation, 8226/ADR", "assay_type": "cell-based", "details": "3H-thymidine uptake"}, "P388 murine leukemia": {"system": "P388 murine leukemia", "experiment": "P388 leukemia tumor assay in mice, survival time", "assay_type": "in vivo, mouse", "details": "for % T/C p388 Leukemia: survival time", "text": "P388 Leukemia Tumors. Mice were young adult, pathogen-free, BALA/c×DBA/2 F1 (i.e., CD2F1) females purchased from Charles River Laboratories. The tumor line was the P388 murine leukemia, ascites form, obtained from the National Cancer Institute (NCI) Tumor Repository (Frederick, Md.). The tumor was maintained in the serial passage in mice by periodic intraperitoneal (ip) implantation. For this experiment, 10^6 hemacytometer-counted P388 murine leukemia cells were implanted ip into mice on Day 0. The mice were randomized into one untreated control group of 20 and 15 test groups of six mice each. All drug treatment was delivered ip on the basis of the average body weight of each group. […] Body weights were recorded on Days 1, 5, 9, 11, and 18. Deaths were recorded daily. Dying mice were necropsied, and the presence or absence of ascites or splenomegaly was recorded. Drug effectiveness was assessed on the basis of the survival time. Results were expressed as a percentage of the control survival time (Survival Time=T/C×100%; T=test animals; C=control animals). The criterion for effectiveness was determined by: T/C×100≥125 percent."}, "[7]": {"system": "MCF-7 human breast tumor cell line", "experiment": "Human tumor growth inhibition, 3H-thymidine incorporation, MCF-7", "assay_type": "cell-based", "details": "3H-thymidine uptake; read-out: IC50 MCF-7", "text": "as §1, §2"}, "Melanotic Melanoma B16": {"system": "Melanotic Melanoma B16", "experiment": "Melanotic melanoma B16 test in mice, survival time", "assay_type": "in vivo, mouse", "details": "100 mg/kg ip once daily for nine days", "method": "Melanotic Melanoma B16 Test. The animals used were B6 C3 F1 mice, all of one sex, weighing a minimum of 18 g for males and 17 g for females and all within a 4 g weight range at the start of the test. The test group comprised 9 or 10 mice. The tumor was implanted in each of the test mice by the subcutaneous injection of 0.5 ml of a tumor homogenate prepared by homogenizing a 1 g portion of melanotic melanoma in 10 ml of cold physiological saline. Compound 1a-1 suspended in hydroypropylcellulose was administered intraperitoneally at a dose of 100 mg/kg once daily for nine consecutive days staring on Day 1 relative to the day of tumor inoculation (Day 0). The control mice received injections of hydroxyproplcellulose vehicle only. The mice were weighed and survivors were recorded on a regular basis for sixty days. The median survival times and the ratio of the median survival times for treated (T) to control (C) mice were calculated. The median survival time of the nontreated rumored mice ranged from 15 to 17 days. Drug effectiveness was assessed on the basis of survival time. Results were expressed as a percentage of the control survival time (Survival Time T/C×100%; T=test animals; C=control animals). The criterion for effectiveness was determined by T/C×100≥125 percent."}}}
{"compound": "CCN(CC)CC(O)CNc1ccc(NCC(O)CCl)c2c1C(=O)c1ccccc1C2=O", "note": "(stereo not drawn) [Compound 1a-1]", "values": [{"measurement": "Resistance Ratio (8226/ADR)", "setting": "[1]", "result": 0.08}, {"measurement": "IC50", "setting": "[2]", "result": 500, "unit": "nM"}, {"measurement": "IC50", "setting": "NHEK human keratinocytes", "result": 160, "unit": "nM"}, {"measurement": "IC50", "setting": "[3]", "result": 1000, "unit": "nM"}, {"measurement": "Resistance Ratio (8226/MT)", "setting": "[4]; 8226/MT vs 8226", "result": 0.24}, {"measurement": "IC50", "setting": "[4]; Homo sapiens, read-out: IC50 8226/MT", "result": 240, "unit": "nM"}, {"measurement": "ratio of IC50 for 8226 cells to IC50 for 8226/MT cells", "setting": "[4]; text wording of ratio", "result": 0.24}, {"measurement": "Resistance Ratio (IC50 MCF-7/ADR to IC50 MCF-7)", "setting": "[5]", "result": 2}, {"measurement": "IC50", "setting": "[6]", "result": 80, "unit": "nM"}, {"measurement": "% T/C p388 Leukemia", "setting": "P388 murine leukemia; 67 mg/kg, Q1D × 9, ip", "result": 140, "unit": "%"}, {"measurement": "% T/C p388 Leukemia", "setting": "P388 murine leukemia; 150 mg/kg Q1D × 9, ip", "result": 130, "unit": "%"}, {"measurement": "survival time of mice (in words)", "setting": "P388 murine leukemia; all dosages and schedules", "result": "effectively increased the survival time"}, {"measurement": "IC50", "setting": "[7]", "result": 250, "unit": "nM"}, {"measurement": "% T/C (B16 median survival time)", "setting": "Melanotic Melanoma B16", "result": 129, "unit": "%"}, {"measurement": "effect on survival time of mice (in words)", "setting": "Melanotic Melanoma B16", "result": "effective for increasing survival time of the mice"}]}
